Assay results published in patent US20100323989A1, “PHARMACEUTICAL COMBINATIONS USEFUL FOR TREATING HCV” (Gilead Sciences, Inc., priority 2009, published 2010).
“And” between values parts separate entries of the source, which are not always exact repeats. Identical values can stand only once. Like-named read-outs stand apart in the source and are kept apart here.

Legend:
[1] = system: wild-type 1b Con-1 PI-Luc replicon; assay: Transient transfection replicon assay, wild type; assay type: cell-based, HCV genotype 1b; settings: Hepatitis C virus
[2] = system: HCV genotype 1b replicon cells (Huh-luc); assay: EC50 determination in HCV genotype 1b Huh-luc replicon cells (luciferase); assay type: cell-based; settings: Hepatitis C virus, 72 h, 3 days, average ± standard deviation
Description: (§1) HCV genotype 1b replicon cells (Huh-luc) were obtained from Reblikon (Mainz, Germany). The replicon in these cells is designated I389luc-ubi-neo/NS3-3′/ET and encodes a selectable resistance marker (neomycin phosphotransferase) as well as the firefly luciferase reporter gene. Huh-luc cells were maintained in Dulbecco's Modified Eagle's Medium (DMEM; GIBCO, Carlsbad, Calif.) supplemented with 10% fetal bovine serum (FBS; Hyclone, Logan, Utah) and 0.5 mg/mL of G-418 (GIBCO). Cells were passaged twice a week and maintained at subconfluent levels.
Replicon cells were seeded in 96-well plates at a density of 5×10^3 cells per well in 100 μL of DMEM culture medium, excluding G-418. Compounds 1 and 2 were serially diluted 1:3 in 100% DMSO (Sigma). These serial dilutions were added to the cells at a 1:200 dilution to achieve a final concentration of 0.5% DMSO in a total volume of 200 μL. […] HCV replication levels in drug-treated samples were expressed as a percentage of those in untreated controls (defined as 100%), and data were fit to the logistic dose response equation y=a/(1+(x/b)c) using XLFit4 software (IDBS, Emeryville, Calif.). EC50 values were calculated from the resulting equations as described previously (Delaney, W. E., et al., Antimicrobial Agents Chemotherapy, 45(6):1705-1713 (2001)).

[3] = system: HCV 1b-con replicon cells; assay: Long-term (20 days, 6 passages) treatment of HCV replicon cells, HCV RNA by Real-Time RT PCR; assay type: cell-based, HCV genotype 1b; settings: from baseline, compounds at 10 times their EC50, mean ± SD
Description: as §1
Both compounds were used at concentrations 10 times over their respective EC50 values. In brief, replicon cells (10^6 cells) were plated in a T75 flask in 15 mL of supplemented DMEM without G418. […] At each passage, cells were trypsinized, 10^6 cells were frozen in […] of RLT RNA lysis buffer (QIAGEN), and an additional 10^6 cells were seeded into another T75 flask with fresh medium and inhibitors. At the end of the assay, RNA was extracted from frozen replicon cells saved at the time of passage using QIAGEN RNeasy spin kit and was analyzed in a Real-Time RT PCR assay (Applied Biosystems).

[4] = system: 1b PI-luc replicon with NS3 protease mutation D168V; assay type: cell-based, HCV genotype 1b; settings: ratio of mutant EC50 to wild type EC50, NS3 D168V
[5] = system: 1b PI-luc replicon with NS3 protease mutation R155K; assay type: cell-based, HCV genotype 1b; settings: ratio of mutant EC50 to wild type EC50, NS3 R155K
[6] = system: 1b Con-1 PI-Luc replicon with NS5B polymerase mutation M423T; assay type: cell-based, HCV genotype 1b; settings: ratio of mutant EC50 to wild type EC50, NS5B M423T
[7] = system: 1b PI-luc replicon with NS3 protease mutation A156T; assay type: cell-based, HCV genotype 1b; settings: ratio of mutant EC50 to wild type EC50, NS3 A156T
[8] = system: 1b PI-luc replicon with NS3 protease mutation V36M; assay type: cell-based, HCV genotype 1b; settings: ratio of mutant EC50 to wild type EC50, NS3 V36M
[9] = system: 1b Con-1 PI-Luc replicon with NS5B polymerase mutations C316Y/C445F/Y452H; assay type: cell-based, HCV genotype 1b; settings: ratio of mutant EC50 to wild type EC50, NS5B C316Y/C445F/Y452H
[10] = Multiple-dose pharmacokinetic interaction study in healthy subjects (Example 5); assay type: in vivo, human; settings: plasma, human, oral, Compound 2 (75 mg BID) alone, Day 7
[11] = Pharmacokinetic drug-drug interaction study, single dose with multiple-dose partner, healthy subjects (Example 6); assay type: in vivo, human; settings: for AUC(0-t) / AUC(0-inf) / Cmax / half-life: human, plasma, Group 3, human; for AUC(0-t): read-out: Compound 2 AUC0-last, Mean (% CV); for AUC(0-inf): read-out: Compound 2 AUCinf, Mean (% CV); for Cmax: read-out: Compound 2 Cmax, Mean (% CV); for half-life: read-out: Compound 2 T1/2, Median (min, max) (converted)
Description: In this study, healthy subjects were randomized into one of the following three treatment groups: […] Treatment Group 3 (N=20): […] Serial blood samples for analysis of plasma concentrations of Compound 2 were collected up to 72 hours post-morning dose on Days 1 and 10 to determine systemic drug exposure.

[12] = system: 1b Con-1 PI-Luc replicon with NS5B polymerase mutation M414T; assay type: cell-based, HCV genotype 1b; settings: ratio of mutant EC50 to wild type EC50, NS5B M414T
[13] = system: 1b Con-1 PI-Luc replicon with NS5B polymerase mutation Y448H; assay type: cell-based, HCV genotype 1b; settings: ratio of mutant EC50 to wild type EC50, NS5B Y448H
[14] = system: 1b PI-luc replicon with NS3 protease mutation T54A; assay type: cell-based, HCV genotype 1b; settings: ratio of mutant EC50 to wild type EC50, NS3 T54A
[15] = Group 3, Compound 1 + Compound 2 / Compound 2 alone
[16] = Group 3, Compound 2 75 mg with Compound 1 40 mg BID vs Compound 2 75 mg alone
[17] = 75 mg, Compound 2 75 mg SD alone
[18] = Compound 2 75 mg SD + Compound 1 40 mg BID

## COc1ccc2c(O[C@@H]3C[C@H]4C(=O)N[C@]5(P(=O)(O)Cc6c(F)cccc6F)C[C@H]5CCCCCCC[C@H](NC(=O)OC5CCCC5)C(=O)N4C3)cc(-c3csc(NC(C)C)n3)nc2c1Cl [Compound 2]
[1]; Table 3 (NS5B mutation study)
  EC50: 50.7 nM
[1]; Table 4 (NS3 protease mutation study)
  EC50: 21.4 nM
[2]
  EC50: 11 ± 3 nM
[3]
  HCV RNA Change in Log10, Passage 5: −2.9 ± 0.2 Log10
  HCV RNA Change in Log10, Passage 6: −3.1 Log10 and −3.1 ± 0.4 Log10
[4]
  Fold Resistance D168V: 1832.3 fold
[5]
  Fold Resistance R155K: 566.3 fold
[6]
  Fold Resistance M423T: 1.1 fold
[7]
  Fold Resistance A156T: 1882.4 fold
[8]
  Fold Resistance V36M: 3.0 fold
[9]
  Fold Resistance C316Y/C445F/Y452H: 2.1 fold
[10]; read-out: Compound 2 Cmax, Mean (% CV)
  Cmax: 4500 ng/mL
[10]; read-out: Compound 2 Ctau, Mean (% CV)
  concentration at 12 h: 1550 ng/mL
[11]; [15]
  Compound 2 AUC0-last, % Geometric Least-Squares Mean Ratio (90% CI): 83.8 (75.5, 93.2) %
  Compound 2 AUCinf, % Geometric Least-Squares Mean Ratio (90% CI): 84.9 (76.6, 94.1) %
  Compound 2 Cmax, % Geometric Least-Squares Mean Ratio (90% CI): 81.3 (72.5, 91.1) %
[11]; Group 3, Compound 2 75 mg alone vs with Compound 1 40 mg BID
  Median terminal elimination half-lives of Compound 2, comparison between the two treatments: similar
[11]; [16]
  decrease in AUC0-last of Compound 2: 16%
  decrease in AUCinf of Compound 2: 15%
  decrease in Cmax of Compound 2: 19%
[11]; [17]
  AUC(0-t): 8790 ng·h/mL
  AUC(0-inf): 9460 ng·h/mL
  Cmax: 1040 ng/mL
  half-life: 5.05 h
[11]; [18]
  AUC(0-t): 7270 ng·h/mL
  AUC(0-inf): 7920 ng·h/mL
  Cmax: 830 ng/mL
  half-life: 6.06 h
[12]
  Fold Resistance M414T: 2.0 fold
[13]
  Fold Resistance Y448H: 1.0 fold
[14]
  Fold Resistance T54A: 0.6 fold
